The text below walks through data of patent US8637496B2, “Compounds having a monogalactosyldiacylglycerol synthase inhibitory activity as herbicide or algaecide, herbicide and algaecide compositions” (Commissariat a l'Energie Atomique, priority 2007, dated 2014).

The target of the experiment is T1, MGDG synthase in isolated spinach chloroplast envelope membranes (Spinacia oleracea, UniProt Q9SM44).
T1 construct: envelope membranes purified from the lysate by sucrose centrifugation gradient; from tissue; host or cells: envelope membranes of chloroplasts from spinach leaves
T1 sequence (Q9SM44 99-522): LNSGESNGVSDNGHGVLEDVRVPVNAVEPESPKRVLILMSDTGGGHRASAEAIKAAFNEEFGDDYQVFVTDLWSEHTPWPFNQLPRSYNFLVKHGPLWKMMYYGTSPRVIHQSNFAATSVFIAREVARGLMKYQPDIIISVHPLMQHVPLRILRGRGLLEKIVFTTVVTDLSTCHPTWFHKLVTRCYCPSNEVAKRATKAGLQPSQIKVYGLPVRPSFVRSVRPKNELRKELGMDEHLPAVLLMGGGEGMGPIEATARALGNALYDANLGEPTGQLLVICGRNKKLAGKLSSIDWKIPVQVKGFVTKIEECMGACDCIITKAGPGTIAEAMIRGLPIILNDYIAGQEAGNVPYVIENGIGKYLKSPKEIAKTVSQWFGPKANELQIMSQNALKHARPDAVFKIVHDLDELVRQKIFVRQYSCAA
The experiment in a line: MGDG synthase activity in envelope membrane fractions isolated from spinach chloroplasts. The class given is biochemical. The conditions noted are these: Table 1, obtained in the same manner as FIG. 4; read-out: Inhibitory effect on MGDG synthesis in isolated spinach chloroplast envelope membranes. The text has this:
All the operations have been carried out as described in the article by Maréchal, E. et al., J. Biol. Chem., 1995, 270, 5714-5722. Crude chloroplasts were obtained from 3-4 kg of spinach leaves and purified by isopycnic centrifugation using Percoll gradients. Purified intact chloroplasts have then been lysed in hypotonic medium and envelope membranes purified from the lysate by sucrose centrifugation gradient as described in the article by Douce, R. and Joyard, J., (1982) in Methods in Chloroplast Molecular Biology (Edelman, M., Hallick R and Chua N H eds), pp 239-256, Elsevier Science Publishers B.V. Amsterdam.
MGDG synthase activity was assayed as described in the article by Maréchal et al. (1995).

Where a name gives a salt, the structure may show the parent alone.

As to `C[C@@H](COC(=O)N1CCC(n2c(=O)[nH]c3ccccc32)CC1)N(Cc1ccccc1)Cc1ccc([N+](=O)[O-])cc1` [Compound 36, (S)-2-(benzyl(4-nitrobenzyl)amino)propyl 4-(2-oxo-2,3-dihydro-1H-benzo[d]imidazol-1-yl)piperidine-1-carboxylate hydrochloride], the IC50 turned out to be 50 µM.

Turning to `C[C@@H](COC(=O)N1CCC(n2c(=O)[nH]c3ccccc32)CC1)N(CCCc1ccccc1)Cc1ccccc1` [Compound 52, (S)-2-(benzyl(3-phenylpropyl)amino)propyl 4-(2-oxo-2,3-dihydro-1H-benzo[d]imidazol-1-yl)piperidine-1-carboxylate hydrochloride], the IC50 was found to be 60 µM.

For the molecule `C[C@@H](COC(=O)N1CCC(n2c(=O)[nH]c3ccccc32)CC1)N(Cc1ccccc1)Cc1cccc(Oc2ccccc2)c1` [Compound 55, (S)-2-(benzyl(3-phenoxybenzyl)amino)propyl 4-(2-oxo-2,3-dihydro-1H-benzo[d]imidazol-1-yl)piperidine-1-carboxylate hydrochloride], the IC50 was determined as 40 µM.

As for `COc1ccc(CN(CCCOC(=O)N2CCC(n3c(=O)[nH]c4ccccc43)CC2)Cc2ccccc2)cc1` [Compound 42, 3-(benzyl(4-methoxybenzyl)amino)propyl 4-(2-oxo-2,3-dihydro-1H-benzo[d]imidazol-1-yl)piperidine-1-carboxylate hydrochloride], the IC50 amounted to 50 µM.

For `O=C(OCCN(Cc1ccccc1)Cc1c(F)cccc1F)N1CCC(n2c(=O)[nH]c3ccccc32)CC1` [Compound 78, 2-(benzyl(2,6-difluorobenzyl)amino)ethyl 4-(2-oxo-2,3-dihydro-1H-benzo[d]imidazol-1-yl)piperidine-1-carboxylate], the IC50 was determined as 8 µM.

As to `O=C(OCCCN(Cc1ccccc1)Cc1cccc(Oc2ccccc2)c1)N1CCC(n2c(=O)[nH]c3ccccc32)CC1` [Compound 73, 3-(benzyl(3-phenoxybenzyl)amino)propyl 4-(2-oxo-2,3-dihydro-1H-benzo[d]imidazol-1-yl)piperidine-1-carboxylate hydrochloride], the IC50 was 15 µM.

In the case of `O=C(OCCN(Cc1ccccc1)Cc1ccc([N+](=O)[O-])cc1)N1CCC(n2c(=O)[nH]c3ccccc32)CC1` [Compound 28, 2-(N-(4-nitrobenzyl)-N-benzylamino)ethyl 4-(1,2-dihydro-2-oxobenzo[d]imidazol-3-yl)piperidine-1-carboxylate], the IC50 was 20 µM.

Take `C[C@@H](COC(=O)N1CCC(n2c(=O)[nH]c3ccccc32)C1)N(Cc1ccccc1)Cc1ccccc1` (stereo partly drawn) [Compound 6, (S)-2-(dibenzylamino)propyl 3-(1,2-dihydro-2-oxobenzo[d]imidazol-3-yl)pyrrolidine-1-carboxylate]: the IC50 amounted to 50 µM.

Regarding `O=C(OCCN(Cc1ccccc1)Cc1ccccc1OCc1ccccc1)N1CCC(n2c(=O)[nH]c3ccccc32)CC1` [Compound 76, 2-(benzyl(2-(benzyloxy)benzyl)amino)ethyl 4-(2-oxo-2,3-dihydro-1H-benzo[d]imidazol-1-yl)piperidine-1-carboxylate], the IC50 is 20 µM.

For the molecule `O=C(OCCCN(Cc1ccccc1)Cc1cccnc1)N1CCC(n2c(=O)[nH]c3ccccc32)CC1` [Compound 58, 3-(benzyl(pyridin-3-ylmethyl)amino)propyl 4-(2-oxo-2,3-dihydro-1H-benzo[d]imidazol-1-yl)piperidine-1-carboxylate hydrochloride], the IC50 stood at 17 µM.

Take `O=C(OCCCN(Cc1ccccc1)Cc1cccc2ccccc12)N1CCC(n2c(=O)[nH]c3ccccc32)CC1` [Compound 70, 3-(benzyl(naphthalen-1-ylmethyl)amino)propyl 4-(2-oxo-2,3-dihydro-1H-benzo[d]imidazol-1-yl)piperidine-1-carboxylate hydrochloride]: the IC50 came out at 60 µM.

On to `O=C(OCCN(Cc1ccccc1)c1ccccc1)N1CCC(n2c(=O)[nH]c3ccccc32)CC1` [Compound 35, 2-(N-benzyl-N-phenylamino)ethyl 4-(1,2-dihydro-2-oxobenzo[d]imidazol-3-yl)piperidine-1-carboxylate], for which the IC50 turned out to be 40 µM.
